The source of these data is patent publication US9303000B2, “Olefin containing nuclear transport modulators and uses thereof” (KARYOPHARM THERAPEUTICS INC., priority 2011, dated 2016).

pIC50: −log10 of the molar value. Like-named read-outs stand apart in the source and are kept apart here.

Data set [1] concerns the target T1, Crm1 (Homo sapiens, UniProt O14980). Briefly: Inhibition of nuclear export (RevGFP assay) / MTT cytotoxicity, Table 1.
Method: (§1) The evaluation of the affinity of compounds for the Crm1 protein was determined in the RevGFP assay.
(§2) In this assay, U2OS-RevGFP cells are seeded onto clear-bottom, black, 384-well plates the day before the experiment. Compounds are serially diluted 1:2 starting from 40 μM in a separate 384-well plate in DMEM, and then transferred onto cells. Cells are incubated with compound for ˜1 hr before fixation with 3.7% formaldehyde and nuclei staining with Hoechst 33258. The amount of GFP in cell nuclei will be measured and compound IC50s determined (Kau et al, 2003).
(§3) The MTT cell proliferation assay was used to study the cytotoxic properties of the compounds. The assay was performed according to the method described by Roche Molecular Biochemicals with minor modifications. The assay is based on the cleavage of the tetrazolium salt, MTT, in the presence of an electron-coupling reagent. The water-insoluble formazan salt produced must be solubilized in an additional step. Cells, grown in a 96-well tissue culture plate, are incubated with the MTT solution for approximately 4 hours. After this incubation period, a water-insoluble formazan dye is formed. After solubilization, the formazan dye is quantitated using a scanning multi-well spectrophotometer (ELISA reader). […] The cells were seeded at 1.5×10^4 cells in each well of 96-well plate in 200 μL of fresh culture medium and were allowed to attach for overnight. The stock solutions of the compounds were diluted in cell culture medium to obtain eight concentrations of each drug, ranging from 1 nM to 20 μM. After 72 h of treatment the medium was aspirated and the cells were washed once with sterile 1×PBS. Each plate contained the samples, negative control and blank. The DMSO at less than 1% v/v was used as a negative control. […] The following formula was used to calculate the percent of inhibition: Inhibition (%)=(1−(ODo/OD))×100.
The subject of data set [2] is HCT-116 tumor cells. Put plainly: HCT-116 colorectal carcinoma xenograft model. Type of data set: in vivo, mice. As for the experimental part:
FIG. 1 is a graph depicting the results of an HCT-116 colorectal carcinoma xenograft model. HCT-116 cells were inoculated into female athymic Balb c. nu^+/nu^+ mice. Once tumors reached an average volume of 200 mm^3, the animals were dosed with vehicle, 25 mg/kg 5-fluorouracil intraperitoneally and 75 mg/kg I-29 subcutaneously.
FIG. 2 is a graph depicting the results of an HCT-116 colorectal carcinoma xenograft model. HCT-116 cells were inoculated into female athymic Balb c. nu^+/nu^+ mice. Once tumors reached an average volume of 100 mm^3 the animals were dosed with vehicle, 50 mg/kg 5-fluorouracil intraperitoneally and 50 and 100 mg/kg I-34 orally. […] Mice were euthanized on Day 26 due to 20% weight loss. At Day 37, I-34 administered QDX5/week at 50 mg/kg inhibited tumor growth by 85%.
Female balb c nude mice (nu/nu) aged 6 to 8 weeks were obtained from Charles River Laboratories and were randomly and prospectively divided into six groups of ten mice. Mice were inoculated s.c. in flanks with 1×10^6 HCT-116 tumor cells. When cells reached 100-200 mm^3, animals were randomized into treatment groups of 5-10 mice each, excluding mice with the largest and smallest tumors. Mice were treated with vehicle, standard of care drugs (5-FU) or compounds of the invention at the indicated doses and regimen. Animals' weights and condition were recorded daily, and tumors were measured daily. On Day 37 (2 hours after the final dose), all mice were sacrificed, plasma and tumor tissue were collected for PK/PD analysis. Tumors were divided in 4 sections (3, flash-frozen in separate vials and 1 fixed in formalin for paraffin block preparation).
HCT-116 Colorectal tumor cells (ATCC# CCL-247) were grown in the DMEM tissue culture media with 10% fetal bovine serum and 1% penicillin/streptomycin. Cells were routinely trypsinized and passaged 1:4. On the day of implantation, cells were washed in PBS, trypsinized and resuspended in complete media. Cells were washed 3× in serum free medium. Cells were resuspended to a density of 1×10^7 cells/ml prior to being implanted s.c. into mice in a volume of 0.1 mL using a 23G needle.
Tumors were monitored daily. Tumors appearing exceeding 1500 mm^3 were measured, and animals with tumors greater than 1500 mm^3 and/or tumors that became necrotic and/or hindered movement were euthanized. Tumors were measured twice weekly by measuring each tumor in 2 dimensions, along the largest dimension (length, L) and perpendicular to this dimension (width, W). Tumor weights were calculated using the standard formula: (L×W^2)/2. The mean tumor weight and standard error of the mean were calculated for each group at each time point.
Statistical differences between treatment groups were determined using appropriate statistical techniques. A one-way ANOVA or ANOVA on ranks was used to evaluate the area-under the curve for weight gain and tumor volume.

Data set [3] deals with MM1.S cells. Briefly: MM1.S multiple myeloma xenograft model. The format is in vivo, mice. As to the method: FIG. 3 is a graph depicting the results of a MM1.S multiple myeloma model. MM1.S cells were inoculated into female athymic Balb c. nu^+/nu^+mice. Once tumors reached an average volume of 780 mm^3 the animals were dosed with vehicle and 75 mg/kg I-1 subcutaneously. Following 3 doses I-1 caused 50% reduction in tumor growth in a statistically significant manner.
FIG. 4 is a graph depicting the results of a MM1.S multiple myeloma model. MM1.S cells were inoculated into female athymic nu^+/nu^+ mice. Once tumors reached an average volume of 1400 mm^3 the animals were dosed with vehicle or 50 mg/kg I-29 subcutaneously every day. On the fourth day of dosing, vehicle group animals (n=10) reached an average volume of 2300 mm^3 and had to be euthanized due to tumor burden and poor health.
105 female athymic nude mice (8-9 weeks old, Harlan, USA) were grouped into […]. Animals were randomized such that the group average tumor volume was between 100-200 mm^3. Group average body weights were matched as closely as possible once average tumor volumes were randomized. The live-phase portion of this study will be 28 days in duration from the start of until the average group tumor volume reaches 2,000 mm^3, whichever comes first. Mice are to be euthanized with samples collected as and when they individually reach a tumor volume of approximately 2,000 mm^3.
MM1s Cell Culture. […]
Tumor volumes were monitored three times per week throughout the study (typically Monday, Wednesday and Friday) and calculated using the formula: Tumor volume=½(a^2 b); where a=width (smallest dimension) and b=length. […]
Animals were monitored as a group and their tumor volumes were measured three times per week at the same time of day. […]

Data set [4] has as its target T1, Crm1.
Method: as §1, §2, §3
[5] abbreviates: 50 mg/kg subcutaneously every day, following 8 doses, FIG. 4.

T1 sequence (O14980 whole entry): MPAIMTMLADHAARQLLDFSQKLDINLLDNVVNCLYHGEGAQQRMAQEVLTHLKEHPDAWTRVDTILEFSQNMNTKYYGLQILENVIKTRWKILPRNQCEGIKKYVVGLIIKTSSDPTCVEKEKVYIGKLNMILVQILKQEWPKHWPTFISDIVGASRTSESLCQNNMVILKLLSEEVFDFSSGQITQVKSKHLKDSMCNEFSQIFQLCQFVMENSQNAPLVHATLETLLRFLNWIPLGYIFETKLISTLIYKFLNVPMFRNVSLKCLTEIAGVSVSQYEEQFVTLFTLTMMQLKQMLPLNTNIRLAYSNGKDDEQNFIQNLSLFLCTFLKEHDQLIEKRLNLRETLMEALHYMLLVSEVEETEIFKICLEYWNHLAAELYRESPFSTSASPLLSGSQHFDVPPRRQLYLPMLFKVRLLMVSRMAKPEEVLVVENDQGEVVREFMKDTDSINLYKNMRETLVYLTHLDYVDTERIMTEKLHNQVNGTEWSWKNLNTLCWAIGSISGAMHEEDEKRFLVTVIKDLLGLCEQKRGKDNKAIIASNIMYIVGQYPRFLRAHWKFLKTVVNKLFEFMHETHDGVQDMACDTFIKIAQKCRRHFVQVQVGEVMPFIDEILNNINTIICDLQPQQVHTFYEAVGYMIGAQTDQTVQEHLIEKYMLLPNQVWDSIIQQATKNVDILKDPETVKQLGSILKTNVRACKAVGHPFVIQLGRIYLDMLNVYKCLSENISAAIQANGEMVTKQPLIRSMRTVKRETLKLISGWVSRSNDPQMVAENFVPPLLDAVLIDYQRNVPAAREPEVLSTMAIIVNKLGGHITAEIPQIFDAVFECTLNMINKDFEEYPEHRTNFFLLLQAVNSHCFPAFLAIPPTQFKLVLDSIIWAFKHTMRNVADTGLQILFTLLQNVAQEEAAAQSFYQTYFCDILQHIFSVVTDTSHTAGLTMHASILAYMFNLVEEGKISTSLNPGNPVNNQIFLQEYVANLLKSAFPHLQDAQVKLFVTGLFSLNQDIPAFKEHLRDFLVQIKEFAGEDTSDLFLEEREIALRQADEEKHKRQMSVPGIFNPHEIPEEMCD

As for `COc1cc(-c2ncn(/C=C\c3nnc(C)o3)n2)cc(C(F)(F)F)c1` [Compound I-2, (Z)-2-(2-(3-(3-methoxy-5-(trifluoromethyl)phenyl)-1H-1,2,4-triazol-1-yl)vinyl)-5-methyl-1,3,4-oxadiazole], the pIC50 (in general, the negative decadic logarithm of the IC50, by convention in mol/L) in data set [1] is over 6.00.

Consider `O=c1[nH]cc(F)c(=O)[nH]1` [Compound 5-FU, 5-fluorouracil, reference compound], for which the “efficacy on tumor growth” value in data set [2] (25 mg/kg intraperitoneally, 3 weeks of dosing, FIG. 1) is “did not display efficacy”. The “inhibition of tumor growth compared to vehicle group” value in data set [2] (50 mg/kg intraperitoneally, Day 37, FIG. 2) is on record as “no inhibition of tumor growth was observed”. In addition, the condition of animals entry in data set [2] (50 mg/kg intraperitoneally, by Day 37, FIG. 2) is “euthanized due to poor condition”. In data set [2] (50 mg/kg intraperitoneally, first 3 weeks, FIG. 2), the “inhibition of tumor growth” value is “inhibited tumor growth during the first 3 weeks in a statistically significant manner”.

Regarding `CC(C)Oc1cc(-c2ncn(/C=C\c3nnco3)n2)cc(C(F)(F)F)c1` [Compound I-29, (Z)-2-(2-(3-(3-isopropoxy-5-(trifluoromethyl)phenyl)-1H-1,2,4-triazol-1-yl)vinyl)-1,3,4-oxadiazole], in data set [2] (75 mg/kg subcutaneously, 5 times/week, following 3 weeks of dosing, FIG. 1), the “reduction in tumor growth” value came to 50%. In addition, in data set [3] (setting [5]), the “animals still alive (survival)” value is reported as 10 out of 12 and the “reduction in tumor growth” value turned out to be 50%. Further, the pIC50 in data set [1] was over 6.00.

`Clc1cccc(-c2ncn(/C=C/c3nnco3)n2)c1` [Compound I-27, (E)-2-(2-(3-(3-chlorophenyl)-1H-1,2,4-triazol-1-yl)vinyl)-1,3,4-oxadiazole] showed a pIC50 in data set [1] of 5.00 to 6.00.

Regarding `COc1cc(-c2ncn(/C=C\c3nnco3)n2)cc(Cl)n1` [Compound I-10, (Z)-2-(2-(3-(2-chloro-6-methoxypyridin-4-yl)-1H-1,2,4-triazol-1-yl)vinyl)-1,3,4-oxadiazole], the pIC50 in data set [1] is over 6.00.

Take `CC(C)Oc1cc(-c2ncn(/C=C\c3ccccc3)n2)cc(C(F)(F)F)c1` [Compound I-39, (Z)-3-(3-isopropoxy-5-(trifluoromethyl)phenyl)-1-styryl-1H-1,2,4-triazole]: the pIC50 in data set [1] is under 5.00.

Take `FC(F)(F)c1cc(-c2ncn(/C=C\c3nnco3)n2)cc(C(F)(F)F)c1` [Compound I-34, (Z)-2-(2-(3-(3,5-bis(trifluoromethyl)phenyl)-1H-1,2,4-triazol-1-yl)vinyl)-1,3,4-oxadiazole]: in data set [2] (50 mg/kg orally QDX5/week, Day 37, FIG. 2), the “inhibition of tumor growth” value was found to be 85%. In addition, the weight loss in data set [2] (100 mg/kg orally QDX5/week, Day 26, mice euthanized, FIG. 2) is reported as 20%. Further, the “reduction of tumor growth” value in data set [2] (100 mg/kg orally QDX5/week, Day 26, FIG. 2) is recorded as “complete reduction of tumor growth”. In data set [1], the pIC50 was over 6.00.

Take `COc1cc(-c2ncn(/C=C\c3nnco3)n2)cc(C(F)(F)F)c1` [Compound I-1, (Z)-2-(2-(3-(3-methoxy-5-(trifluoromethyl)phenyl)-1H-1,2,4-triazol-1-yl)vinyl)-1,3,4-oxadiazole]: the “reduction in tumor growth” value in data set [3] (75 mg/kg subcutaneously, following 3 doses, FIG. 3) is on record as 50%. Besides, in data set [1], the pIC50 is over 6.00.

In data set [1], `CC(C)Oc1cc(Cl)cc(-c2ncn(/C=C\c3nnco3)n2)c1` [Compound I-28, (Z)-2-(2-(3-(3-chloro-5-isopropoxyphenyl)-1H-1,2,4-triazol-1-yl)vinyl)-1,3,4-oxadiazole] showed a pIC50 of over 6.00.

Compound `Clc1cccc(-c2ncn(/C=C\c3nnco3)n2)c1` [Compound I-26, (Z)-2-(2-(3-(3-chlorophenyl)-1H-1,2,4-triazol-1-yl)vinyl)-1,3,4-oxadiazole] showed a pIC50 in data set [1] of over 6.00.

As for `CC(C)Oc1cc(-c2ncn(/C=C\c3nnco3)n2)cc(C(F)(F)F)n1` [Compound I-30, (Z)-2-(2-(3-(2-isopropoxy-6-(trifluoromethyl)pyridin-4-yl)-1H-1,2,4-triazol-1-yl)vinyl)-1,3,4-oxadiazole], the negative-log IC50 (pIC50) in data set [1] was over 6.00.

In turn, `N#Cc1cc(-c2ncn(/C=C\c3nnco3)n2)cc(C(F)(F)F)c1` [Compound I-35, (Z)-3-(1-(2-(1,3,4-oxadiazol-2-yl)vinyl)-1H-1,2,4-triazol-3-yl)-5-(trifluoromethyl)benzonitrile] showed a pIC50 in data set [1] of over 6.00.

On to `Oc1cc(-c2ncn(/C=C\c3nnco3)n2)cc(C(F)(F)F)c1` [Compound I-36, (Z)-3-(1-(2-(1,3,4-oxadiazol-2-yl)vinyl)-1H-1,2,4-triazol-3-yl)-5-(trifluoromethyl)phenol], for which the pIC50 in data set [1] is over 6.00.

In data set [1], `CS(=O)(=O)c1cc(-c2ncn(/C=C\c3nnco3)n2)cc(C(F)(F)F)c1` [Compound I-33, (Z)-2-(2-(3-(3-(methylsulfonyl)-5-(trifluoromethyl)phenyl)-1H-1,2,4-triazol-1-yl)vinyl)-1,3,4-oxadiazole] had a pIC50 of over 6.00.

The compound `CC(C)Oc1cc(-c2ncn(/C=C\c3ccccn3)n2)cc(C(F)(F)F)c1` [Compound I-37, (Z)-2-(2-(3-(3-isopropoxy-5-(trifluoromethyl)phenyl)-1H-1,2,4-triazol-1-yl)vinyl)pyridine] showed a pIC50 in data set [1] of over 6.00.

As to `CC(C)Oc1cc(-c2ncn(/C=C\c3nnco3)n2)cc(Cl)n1` [Compound I-31, (Z)-2-(2-(3-(2-chloro-6-isopropoxypyridin-4-yl)-1H-1,2,4-triazol-1-yl)vinyl)-1,3,4-oxadiazole], in data set [1], the pIC50 is over 6.00.

“(Z)-2-(2-(3-(3-chloro-5-(trifluoromethoxy)phenyl)-1H-1,2,4-triazol-1-yl)vinyl)-1,3,4-oxadiazole [Compound I-32]” had a pIC50 in data set [4] of over 6.00.

`COc1cc(-c2ncn(/C=C\c3ccccc3)n2)cc(C(F)(F)F)c1` [Compound I-38, (Z)-3-(3-methoxy-5-(trifluoromethyl)phenyl)-1-styryl-1H-1,2,4-triazole] had a negative logarithm of the IC50 (pIC50) in data set [1] of under 5.00.

On to `COc1cc(-c2ncn(/C=C\c3ccccn3)n2)cc(C(F)(F)F)c1` [Compound I-21, (Z)-2-(2-(3-(3-methoxy-5-(trifluoromethyl)phenyl)-1H-1,2,4-triazol-1-yl)vinyl)pyridine], for which the negative logarithm of the IC50 (pIC50) in data set [1] is under 5.00.
